Laboratory results: PubChem BioAssay (NCI)
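Five compound concentrations were applied to cells in 96-well plates for 48 hours; endpoints were derived by simple linear interpolation of the resulting dose-response curve. TGI denotes the concentration required for complete inhibition of growth.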

Legend:
Assay in all cases: NCI-60 cell line screen, 48 h
[1] = test system: IGROV1 ovarian
[2] = test system: HOP-62 NSCLC
[3] = test system: 786-0 renal
[4] = test system: SF-539 CNS
[5] = test system: HCT-15 colon
[6] = test system: HCT-116 colon
[7] = test system: HCC-2998 colon
[8] = test system: UACC-62 melanoma
[9] = test system: SK-MEL-28 melanoma
[10] = test system: ACHN renal
[11] = test system: MALME-3M melanoma
[12] = test system: KM20L2 colon
[13] = test system: SN12C renal
[14] = test system: RPMI-8226 leukemia
[15] = test system: SNB-75 CNS
[16] = test system: DMS 114 small cell lung
[17] = test system: HOP-18 NSCLC
[18] = test system: SNB-78 CNS
[19] = test system: EKVX NSCLC
[20] = test system: HT29 colon
[21] = test system: K-562 leukemia
[22] = test system: A498 renal
[23] = test system: CAKI-1 renal
[24] = test system: SNB-19 CNS
[25] = test system: HOP-92 NSCLC
[26] = test system: OVCAR-3 ovarian
[27] = test system: COLO 205 colon
[28] = test system: MOLT-4 leukemia
[29] = test system: DMS 273 small cell lung
[30] = test system: XF 498 CNS
[31] = test system: A549 NSCLC
[32] = test system: U251 CNS
[33] = test system: SF-268 CNS
[34] = test system: OVCAR-8 ovarian
[35] = test system: SK-MEL-5 melanoma
[36] = test system: SW-620 colon
[37] = test system: M19-MEL melanoma
[38] = test system: NCI-H226 lung
[39] = test system: SK-OV-3 ovarian
[40] = test system: NCI-H460 lung
[41] = test system: SF-295 CNS
[42] = test system: CCRF-CEM leukemia
[43] = test system: DLD-1 colon
[44] = test system: TK-10 renal
[45] = test system: SR leukemia
[46] = test system: NCI-H23 lung
[47] = test system: OVCAR-4 ovarian
[48] = test system: OVCAR-5 ovarian
[49] = test system: NCI-H522 lung
[50] = test system: KM12 colon
[51] = test system: UACC-257 melanoma
[52] = test system: LXFL 529 NSCLC
[53] = test system: HL-60(TB) leukemia
[54] = test system: SK-MEL-2 melanoma
[55] = test system: UO-31 renal

NC(=O)c1ccccc1[N+](=O)[O-]
TGI [1]: > 100 µM | TGI [2]: > 100 µM | TGI [3]: > 100 µM | TGI [4]: > 100 µM | TGI [5]: > 100 µM | TGI [6]: > 100 µM | TGI [7]: > 100 µM | TGI [8]: > 100 µM | TGI [9]: > 100 µM | TGI [10]: > 100 µM | TGI [11]: > 100 µM | TGI [12]: > 100 µM | TGI [13]: > 100 µM | TGI [14]: > 100 µM | TGI [15]: > 100 µM | TGI [16]: > 100 µM | TGI [17]: > 100 µM | TGI [18]: > 100 µM | TGI [19]: > 100 µM | TGI [20]: > 100 µM | TGI [21]: > 100 µM | TGI [22]: > 100 µM | TGI [23]: > 100 µM | TGI [24]: > 100 µM | TGI [25]: > 100 µM | TGI [26]: > 100 µM | TGI [27]: > 100 µM | TGI [28]: > 100 µM | TGI [29]: > 100 µM | TGI [30]: > 100 µM | TGI [31]: > 100 µM | TGI [32]: > 100 µM | TGI [33]: > 100 µM | TGI [34]: > 100 µM | TGI [35]: > 100 µM | TGI [36]: > 100 µM | TGI [37]: > 100 µM

CN(c1ccc(C(=O)c2ccc(N(C)S(C)(=O)=O)cc2)cc1)S(C)(=O)=O
TGI [3]: > 100 µM | TGI [38]: > 100 µM | TGI [6]: > 100 µM | TGI [39]: > 100 µM | TGI [40]: > 100 µM | TGI [41]: > 100 µM | TGI [42]: > 100 µM | TGI [8]: > 100 µM | TGI [43]: > 100 µM | TGI [9]: > 100 µM | TGI [10]: > 100 µM | TGI [11]: > 100 µM | TGI [12]: > 100 µM | TGI [44]: > 100 µM | TGI [45]: > 100 µM | TGI [46]: > 100 µM | TGI [13]: > 100 µM | TGI [14]: > 100 µM | TGI [15]: > 100 µM | TGI [16]: 61.1 µM | TGI [18]: > 100 µM | TGI [19]: > 100 µM | TGI [20]: > 100 µM | TGI [21]: > 100 µM | TGI [22]: > 100 µM | TGI [47]: > 100 µM | TGI [48]: > 100 µM | TGI [49]: > 100 µM | TGI [23]: > 100 µM | TGI [24]: > 100 µM | TGI [25]: > 100 µM | TGI [50]: > 100 µM | TGI [51]: > 100 µM | TGI [52]: > 100 µM | TGI [53]: > 100 µM | TGI [54]: > 100 µM | TGI [27]: > 100 µM | TGI [28]: > 100 µM | TGI [31]: > 100 µM | TGI [32]: > 100 µM | TGI [33]: > 100 µM | TGI [34]: > 100 µM | TGI [35]: 78.4 µM | TGI [36]: > 100 µM | TGI [55]: > 100 µM | TGI [37]: > 100 µM
